Measurements reported in patent US20250346597A1, “CONDENSED HETEROCYCLIC COMPOUNDS AS INHIBITOR OF DIACYLGLYCEROL KINASES” (BEONE MEDICINES I GMBH, priority 2023, published 2025).

Assays:
DGKα = DGKα (Homo sapiens (Human), UniProt P23743); assay: Biochemical DGK IC50 assay (ADP-Glo, lipid micelle substrate), DGKα; settings: full length DGKα […], ATP 140 μM, DAG 80 μM; further: full length DGKα 7.5 nM
Procedure: (§1) Enzymatic reactions of DGKζ, DGKα and DGKδ were performed using ADP-Glo assay with lipid micelle substrate. […] Full length DGKα (D21-10BG, SignalChem) and full length DGKδ (D23-10G, SignalChem) were purchased. Lipid micelle was prepared by dissolving DAG (Sigma, 317505-10MG) and PS (Sigma, P7769-100MG) with chloroform which was furtherly removed by rotary evaporation. The resulted product was resuspended in buffer containing 25 mM HEPES pH 7.0, 0.5 mM EDTA and 160 mM Octyl P-D glucopyranoside by vigorous mixing and ultrasonic (IID, Scientz).
(§2) The inhibition activities testing for the compound disclosed herein were carried out at room temperature in assay buffer containing 50 mM HEPES, 10 mM MgCl2, 0.01% BSA, 0.1 mM Na3VO4, 0.005% Tween-20 and 0.01 mM CaCl2. Compounds in DMSO were dispensed into wells of a black 384 well plate (Corning 4514) using D300e digital dispenser (Tecan). […] 3 μL 2× enzyme solution was added to wells. […] After 1 hour reaction, 5 μL ADP-Glo reagent (Promga V9101) was added and incubated for 40 minutes. 10 μL Kinase Detection reagent was added and incubated for 30 minutes. Luminescence was measured on a microplate reader (PHERAstar FSX, BMG labtech). The IC50s are calculated based on inhibition of enzyme activity in the presence of increasing concentrations of compounds.

DGKζ = DGKζ (Homo sapiens (Human), UniProt Q13574); assay: Biochemical DGK IC50 assay (ADP-Glo, lipid micelle substrate), DGKζ; settings: full length DGKζ 0.5 nM, ATP 140 μM, DAG 80 μM
Procedure: as §1, §2
Human His-TEV-DGK-zeta-pFastBac1 and human baculovirus samples was generated using the Bac-to-Bac baculovirus expression system (Invitrogen) according to the manufacturer's protocol. The DNA used for expression of DGK-zeta, have SEQ ID Nos: 1. Baculovirus amplification was achieved using infected SF9 cells at 1:2000 virus/cells ratios, and grown for 96 hours at 27° C. post-transfected.
The expression scaled up for each protein was carried out in the […] from CORNING. 4 L of 3×10^6 cells/mL Sf9 cells (Expression System, Invitrogen) grown in SF900™ II SFM insect medium (Expression System) was infected with virus stock at 1:200 virus/cells ratio, and grown for 48 hours at 27° C. post-transfection. The infected cell culture was harvested by centrifugation at 6000 rpm for 15 min 4° C. in a SORVALL LYNX6000 centrifuge. The cell pellets were stored at −80° C.
Full length human DGKζ produced as described above, was purified from Sf9 baculovirus-infected insect cell paste. The cells were lysed using sonication method, and the lysates were clarified by centrifugation.

DGKζ, sequence (Q13574 other isoform, or with tags, fused parts or gaps): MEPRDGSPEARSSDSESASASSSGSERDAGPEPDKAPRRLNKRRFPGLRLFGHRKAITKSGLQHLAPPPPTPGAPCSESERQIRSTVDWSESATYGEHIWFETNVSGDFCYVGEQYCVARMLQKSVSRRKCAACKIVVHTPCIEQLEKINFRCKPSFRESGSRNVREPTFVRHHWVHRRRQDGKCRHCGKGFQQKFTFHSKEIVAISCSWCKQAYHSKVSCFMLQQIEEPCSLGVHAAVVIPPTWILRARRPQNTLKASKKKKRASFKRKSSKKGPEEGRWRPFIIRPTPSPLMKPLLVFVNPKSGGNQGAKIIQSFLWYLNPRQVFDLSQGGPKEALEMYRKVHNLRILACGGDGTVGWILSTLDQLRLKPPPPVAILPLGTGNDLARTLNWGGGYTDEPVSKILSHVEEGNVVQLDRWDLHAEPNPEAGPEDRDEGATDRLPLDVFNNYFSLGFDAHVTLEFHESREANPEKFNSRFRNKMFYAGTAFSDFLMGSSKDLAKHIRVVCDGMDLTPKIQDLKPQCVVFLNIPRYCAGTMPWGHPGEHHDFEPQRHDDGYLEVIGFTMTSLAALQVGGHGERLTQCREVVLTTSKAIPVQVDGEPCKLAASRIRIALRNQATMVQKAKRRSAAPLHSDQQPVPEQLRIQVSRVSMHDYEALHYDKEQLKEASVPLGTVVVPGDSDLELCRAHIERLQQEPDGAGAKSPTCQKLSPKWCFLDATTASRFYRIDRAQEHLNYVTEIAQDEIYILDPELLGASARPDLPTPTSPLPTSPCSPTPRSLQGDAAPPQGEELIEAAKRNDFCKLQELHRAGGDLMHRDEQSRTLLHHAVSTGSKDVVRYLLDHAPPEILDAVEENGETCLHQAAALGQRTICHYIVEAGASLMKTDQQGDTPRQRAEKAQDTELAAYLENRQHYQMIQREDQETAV
DGKα, sequence (P23743 whole entry): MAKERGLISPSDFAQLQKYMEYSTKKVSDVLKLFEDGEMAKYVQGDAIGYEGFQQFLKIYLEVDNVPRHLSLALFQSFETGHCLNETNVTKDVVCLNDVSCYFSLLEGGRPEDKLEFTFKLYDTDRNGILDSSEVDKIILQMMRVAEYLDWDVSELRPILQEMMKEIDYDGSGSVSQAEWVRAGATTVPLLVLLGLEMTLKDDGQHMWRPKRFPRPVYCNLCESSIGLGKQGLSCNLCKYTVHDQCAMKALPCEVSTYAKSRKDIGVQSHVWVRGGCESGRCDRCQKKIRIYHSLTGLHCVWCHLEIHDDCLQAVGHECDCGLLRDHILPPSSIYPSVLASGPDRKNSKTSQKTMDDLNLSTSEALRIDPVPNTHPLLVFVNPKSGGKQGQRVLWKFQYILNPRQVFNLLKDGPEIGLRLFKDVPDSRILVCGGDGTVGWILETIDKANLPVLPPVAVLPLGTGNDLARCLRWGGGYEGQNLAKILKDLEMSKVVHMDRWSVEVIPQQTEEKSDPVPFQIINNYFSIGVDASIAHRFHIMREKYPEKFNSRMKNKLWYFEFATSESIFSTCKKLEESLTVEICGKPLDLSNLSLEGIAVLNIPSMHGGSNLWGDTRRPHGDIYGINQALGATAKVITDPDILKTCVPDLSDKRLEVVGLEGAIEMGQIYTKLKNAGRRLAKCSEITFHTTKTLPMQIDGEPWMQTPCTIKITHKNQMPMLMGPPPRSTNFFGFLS

IC50 (DGKα)	IC50 (DGKζ)	SMILES
23 nM	1440 nM	CC[C@H]1CN(C(C)c2ccc(C(=O)N3CC(OC)C3)cc2)[C@H](CC)CN1c1cc(=O)n(C)c2cn(CC#N)nc12 (single isomer, unassigned) [Compound A1a]
13600 nM	227 nM	CC[C@H]1CN(C(C)c2cc(F)c(C(=O)N(C)C)c(F)c2)[C@H](CC)CN1c1cc(=O)n(C)c2cn(CC#N)nc12 (single isomer, unassigned) [Compound A3a]
5900 nM	551 nM	CC[C@H]1CN(C(C)c2cc(F)c(C(=O)N(C)C)c(F)c2)[C@H](CC)CN1c1cc(=O)n(C)c2cn(CC#N)nc12 (single isomer, unassigned) [Compound A3b]
4840 nM	3170 nM	CC[C@H]1CN(C(C)c2ccc(C(=O)N(C)C)c(F)c2)[C@H](CC)CN1c1cc(=O)n(C)c2cn(CC#N)nc12 (single isomer, unassigned) [Compound A4b]
2890 nM	1470 nM	CC[C@H]1CN(C(C)c2ccc(OC3COC3)c(C)c2)[C@H](CC)CN1c1cc(=O)n(C)c2cn(CC#N)nc12 (single isomer, unassigned) [Compound A21a]
> 150000 nM	> 10000 nM	CC[C@H]1CN(C(C)c2ccc(OC3COC3)c(C)c2)[C@H](CC)CN1c1cc(=O)n(C)c2cn(CC#N)nc12 (single isomer, unassigned) [Compound A21b]
138 nM	534 nM	CC[C@H]1CN(C(C)c2ccc(OC3COC3)c(F)c2)[C@H](CC)CN1c1cc(=O)n(C)c2cn(CC#N)nc12 (single isomer, unassigned) [Compound A23b]
6020 nM	2200 nM	CC[C@H]1CN(C(C)c2cc(F)c(CN(C)C)c(F)c2)[C@H](CC)CN1c1cc(=O)n(C)c2cn(CC#N)nc12 (single isomer, unassigned) [Compound A25b]
24700 nM	> 10000 nM	CC[C@H]1CN(C(C)c2ccc(CN3CCCC3)cc2)[C@H](CC)CN1c1cc(=O)n(C)c2cn(CC#N)nc12 (single isomer, unassigned) [Compound A26b]
37 nM	75 nM	CC[C@H]1CN(C(C)c2ccc(OC)cc2)[C@H](CC)CN1c1cc(=O)n(C)c2cn(CC#N)nc12 (single isomer, unassigned) [Compound A34a]
596 nM	2940 nM	CC[C@H]1CN(C(C)c2ccc(OC)cc2)[C@H](CC)CN1c1cc(=O)n(C)c2cn(CC#N)nc12 (single isomer, unassigned) [Compound A34b]
> 150000 nM	2420 nM	CC[C@H]1CN(C(C)c2nc(C)c(C)s2)[C@H](CC)CN1c1cc(=O)n(C)c2cn(CC#N)nc12 (single isomer, unassigned) [Compound A35b]
810 nM	126 nM	CC[C@H]1CN(C(C)c2ccc(C3CC3)nc2)[C@H](CC)CN1c1cc(=O)n(C)c2cn(CC#N)nc12 (single isomer, unassigned) [Compound A38a]
2350 nM	1180 nM	CC[C@H]1CN(C(C)c2ccc(C3CC3)nc2)[C@H](CC)CN1c1cc(=O)n(C)c2cn(CC#N)nc12 (single isomer, unassigned) [Compound A38b]
6640 nM	5060 nM	CC[C@H]1CN(C(C)c2ccc(COC)nc2)[C@H](CC)CN1c1cc(=O)n(C)c2cn(CC#N)nc12 (single isomer, unassigned) [Compound A42b]
202 nM	30 nM	CC[C@H]1CN(C(C)c2ccc(C3CC3)nc2F)[C@H](CC)CN1c1cc(=O)n(C)c2cn(CC#N)nc12 (single isomer, unassigned) [Compound A45a]
728 nM	865 nM	CC[C@H]1CN(C(C)c2ccc(C3CC3)nc2F)[C@H](CC)CN1c1cc(=O)n(C)c2cn(CC#N)nc12 (single isomer, unassigned) [Compound A45b]
913 nM	396 nM	CC[C@H]1CN(C(C)c2ccc(C(C)(C)F)nc2)[C@H](CC)CN1c1cc(=O)n(C)c2cn(CC#N)nc12 (single isomer, unassigned) [Compound A46b]

Further lines, the molecule ahead of its results:

SMILES	IC50 (DGKα)	IC50 (DGKζ)
CC[C@H]1CN(C(C)c2ccc(C(=O)N3CC(OC)C3)cc2)[C@H](CC)CN1c1cc(=O)n(C)c2cn(CC#N)nc12 (single isomer, unassigned) [Compound A1b]	734 nM	> 10000 nM
CC[C@H]1CN(C(C)c2ccc(C(=O)N(C)C)c(F)c2)[C@H](CC)CN1c1cc(=O)n(C)c2cn(CC#N)nc12 (single isomer, unassigned) [Compound A4a]	2690 nM	569 nM
CC[C@H]1CN(C(C)c2ccc(OC(C)C)cn2)[C@H](CC)CN1c1cc(=O)n(C)c2cn(CC#N)nc12 (single isomer, unassigned) [Compound A5la]	26 nM	138 nM
CC[C@H]1CN(C(C)c2ccc(OC(F)F)cc2)[C@H](CC)CN1c1cc(=O)n(C)c2cn(CC#N)nc12 (single isomer, unassigned) [Compound A19a]	22 nM	130 nM
CC[C@H]1CN(C(C)c2ccc(OC(F)F)cc2)[C@H](CC)CN1c1cc(=O)n(C)c2cn(CC#N)nc12 (single isomer, unassigned) [Compound A19b]	289 nM	4900 nM
CC[C@H]1CN(C(C)c2ccc(OC3COC3)c(F)c2)[C@H](CC)CN1c1cc(=O)n(C)c2cn(CC#N)nc12 (single isomer, unassigned) [Compound A23a]	2350 nM	3740 nM
CC[C@H]1CN(C(C)c2cc(F)c(CN(C)C)c(F)c2)[C@H](CC)CN1c1cc(=O)n(C)c2cn(CC#N)nc12 (single isomer, unassigned) [Compound A25a]	3380 nM	246 nM
CC[C@H]1CN(C(C)c2ccc(CN3CCCC3)cc2)[C@H](CC)CN1c1cc(=O)n(C)c2cn(CC#N)nc12 (single isomer, unassigned) [Compound A26a]	1440 nM	4090 nM
CC[C@H]1CN(C(C)c2nc(C)c(C)s2)[C@H](CC)CN1c1cc(=O)n(C)c2cn(CC#N)nc12 (single isomer, unassigned) [Compound A35a]	131 nM	234 nM
CC[C@H]1CN(C(C)c2nc3c(s2)CCCC3)[C@H](CC)CN1c1cc(=O)n(C)c2cn(CC#N)nc12 (single isomer, unassigned) [Compound A36a]	164 nM	57 nM
CC[C@H]1CN(C(C)c2nc3c(s2)CCCC3)[C@H](CC)CN1c1cc(=O)n(C)c2cn(CC#N)nc12 (single isomer, unassigned) [Compound A36b]	2110 nM	946 nM
CC#CCn1cc2c(n1)c(N1C[C@@H](CC)N(C(C)c3ccc(C4CC4)nc3)C[C@@H]1CC)cc(=O)n2C (single isomer, unassigned) [Compound A39a]	33 nM	464 nM
CC#CCn1cc2c(n1)c(N1C[C@@H](CC)N(C(C)c3ccc(C4CC4)nc3)C[C@@H]1CC)cc(=O)n2C (single isomer, unassigned) [Compound A39b]	237 nM	2360 nM
CC[C@H]1CN(C(C)c2ccc(COC)nc2)[C@H](CC)CN1c1cc(=O)n(C)c2cn(CC#N)nc12 (single isomer, unassigned) [Compound A42a]	1960 nM	315 nM
CC[C@H]1CN(C(C)c2ccc(C(C)(C)F)nc2)[C@H](CC)CN1c1cc(=O)n(C)c2cn(CC#N)nc12 (single isomer, unassigned) [Compound A46a]	406 nM	6.4 nM
CC[C@H]1CN(C(C)c2cnc(C3CC3)cc2F)[C@H](CC)CN1c1cc(=O)n(C)c2cn(CC#N)nc12 (single isomer, unassigned) [Compound A47a]	1190 nM	88 nM
CC[C@H]1CN(C(C)c2cnc(C3CC3)cc2F)[C@H](CC)CN1c1cc(=O)n(C)c2cn(CC#N)nc12 (single isomer, unassigned) [Compound A47b]	3520 nM	1120 nM
CC[C@H]1CN(C(C)c2ccc(C3CC3)nc2)[C@H](CC)CN1c1c(F)c(=O)n(C)c2cn(CC#N)nc12 (single isomer, unassigned) [Compound A48a]	240 nM	59 nM
CC[C@H]1CN(C(C)c2ccc(N)nc2)[C@H](CC)CN1c1cc(=O)n(C)c2cn(CC#N)nc12 (single isomer, unassigned) [Compound A187b]	11900 nM	–
